72 compounds from patent publication US8981111B2 (priority 2008, dated 2015) can be followed below.

The nature of this data set: log P (HPLC/MS data of the preparation examples). The settings on record: for log p: LC-MS, linear gradient 10% to 95% acetonitrile; for chromatographic logP: reversed phase HPLC column, pH 2.7.
Setting [1] is: method [b]: pH 2.7 with 0.1% formic acid in water and acetonitrile.

SMILES strings stand for the structures.

In general, chromatographic logP refers to lipophilicity estimated from chromatographic retention. A higher chromatographic logP goes with a more lipophilic compound.

Turning to `Cc1cccc(C(=NOCc2cccc(N3C(=O)c4ccccc4C3=O)n2)c2ncnn2C)c1` [Example 5], the log p under setting [1] was 3.04^[b]. Same read-out and setting: the figure for `Cc1ccccc1C(=NOCc1cccc(N)n1)c1ncnn1C` [Example 6] is 0.96^[b].

In the case of `Cc1cccc(C(=NOCc2cccc(N)n2)c2ncnn2C)c1` [Example 8], the log p under setting [1] was 1.27^[b]. Take `Cc1ccccc1C(=NOCc1cccc(N2C(=O)c3ccccc3C2=O)n1)c1ncnn1C` [Example 9]: the log p under setting [1] is 2.78^[b]. Same read-out and setting: the figure for `Cc1ccc(C(=NOCc2cccc(N3C(=O)c4ccccc4C3=O)n2)c2ncnn2C)cc1` [Example 10] is 2.92^[b]. In the case of `Cn1ccnc1C(=NOCc1cccc(N)n1)c1ccccc1` [Example 11], the log p by setting is: under setting [1], 0.36^[b]; (method [c]: pH 7.8 with 0.001 molar ammonium hydrogen carbonate solution in water) 1.89^[c];.

With `Cn1ccnc1C(=NOCc1nccc(NC(=O)C(C)(C)C)n1)c1ccccc1` [Example 12], the log p under setting [1] is 1.77^[b]. Regarding `Cn1ncnc1C(=NOCc1cccc(N2C(=O)c3ccccc3C2=O)n1)c1ccccc1` [Example 13, 2-{6-[({[(1-methyl-1H-1,2,4-triazol-5-yl)(phenyl)methylene]amino}oxy)methyl]pyridin-2-yl}-1H-isoindole-1,3(2H)-dione], the chromatographic logP amounted to 2.76. In the case of `CCCCCCC(=O)Nc1ccnc(CON=C(c2ccccc2)c2nccn2C)n1` [Example 14], the log p under setting [1] is 2.39^[b]. As to `CC(C)CC(=O)Nc1ccnc(CON=C(c2ccccc2)c2nccn2C)n1` [Example 15], the log p under setting [1] is 1.76^[b]. For `CCCCCC(=O)Nc1ccnc(CON=C(c2ccccc2)c2nccn2C)n1` [Example 16], the log p under setting [1] is 2.1^[b]. For the compound `Cc1ccc(C(=NOCc2cccc(NC(=O)C3CC3)n2)c2ncnn2C)cc1` [Example 17], under setting [1], the log p was 2.73^[b]. For `CCCCCC(=O)Nc1cccc(CON=C(c2ccc(C)cc2)c2ncnn2C)n1` [Example 18], the log p under setting [1] is 3.71^[b].

For the compound `Cc1ccc(C(=NOCc2cccc(NC(=O)C(C)(C)C)n2)c2ncnn2C)cc1` [Example 19], under setting [1], the log p was 3.31^[b]. `Cc1cccc(C(=NOCc2cccc(NC(=O)C3CC3)n2)c2ncnn2C)c1` [Example 20]: the log p under setting [1] is 2.73^[b]. As for `CCCCCC(=O)Nc1cccc(CON=C(c2cccc(C)c2)c2ncnn2C)n1` [Example 21], the log p under setting [1] is 3.71^[b]. For `Cc1cccc(C(=NOCc2cccc(NC(=O)C(C)(C)C)n2)c2ncnn2C)c1` [Example 22], the log p under setting [1] is 3.31^[b]. Still for that read-out and setting: the figure for `Cc1ccccc1C(=NOCc1cccc(NC(=O)C2CC2)n1)c1ncnn1C` [Example 23] is 2.48^[b]. Consider `CCCCCC(=O)Nc1cccc(CON=C(c2ccccc2C)c2ncnn2C)n1` [Example 24], for which the log p under setting [1] was 3.46^[b]. On the same count and under the same terms, the figure for `Cc1ccccc1C(=NOCc1cccc(NC(=O)C(C)(C)C)n1)c1ncnn1C` [Example 25] is 3.06^[b]; for `Cn1ncnc1C(=NOCc1cccc(NC(=O)C(C)(C)C)n1)c1ccccc1` [Example 26] it is 2.98^[b]. Same read-out and setting: the figure for `Cn1ncnc1C(=NOCc1cccc(NC(=O)C2CC2)n1)c1ccccc1` [Example 27] is 2.41^[b]. Consider `CCCCCC(=O)Nc1cccc(CON=C(c2ccccc2)c2ncnn2C)n1` [Example 28, N-{6-[({[(1-methyl-1H-1,2,4-triazol-5-yl)(phenyl)methylene]amino}oxy)methyl]pyridin-2-yl}hexanamide], for which the chromatographic logP turned out to be 3.39. For `Cn1ncnc1C(=NOCc1cccc(NC(=O)Cc2ccccc2)n1)c1ccccc1` [Example 29], under setting [1], the log p is 3.06^[b].

As to `Cc1ccccc1C(=NOCc1cccc(NC(=O)Cc2ccccc2)n1)c1ncnn1C` [Example 30], the log p under setting [1] is 3.11^[b]. As for `Cc1cccc(C(=NOCc2cccc(NC(=O)Cc3ccccc3)n2)c2ncnn2C)c1` [Example 31], under setting [1], the log p is 3.35^[b]. The same measure, in the same setting: the figure for `Cn1ccnc1C(=NOCc1cccc(NC(=O)Cc2ccccc2)n1)c1ccccc1` [Example 32] is 2^[b]; for `CCCCCC(=O)Nc1cccc(CON=C(c2ccccc2)c2nccn2C)n1` [Example 33] it is 2.23^[b]; for `CCCCCOC(=O)Nc1cccc(CON=C(c2ccccc2)c2ncnn2C)n1` [Example 35] it is 3.96^[b]. Same read-out and setting: the figure for `CC(C)CC(=O)Nc1cccc(CON=C(c2ccccc2)c2nccn2C)n1` [Example 36] is 1.89^[b]; for `CCCCCOC(=O)Nc1cccc(CON=C(c2ccccc2)c2nccn2C)n1` [Example 37] it is 2.6^[b]; for `CCCCCC(=O)Nc1ccnc(CON=C(c2ccc(C)cc2)c2ncnn2C)n1` [Example 38] it is 3.42^[b]. On the same count and under the same terms, the figure for `Cc1ccc(C(=NOCc2nccc(NC(=O)C(C)(C)C)n2)c2ncnn2C)cc1` [Example 39] is 3.02^[b]. Turning to `Cc1ccc(C(=NOCc2nccc(NC(=O)C3CC3)n2)c2ncnn2C)cc1` [Example 40], the log p under setting [1] was 2.46^[b]. `CCCCCOC(=O)Nc1ccnc(CON=C(c2ccc(C)cc2)c2ncnn2C)n1` [Example 41]: the log p under setting [1] is 3.76^[b]. Still for that read-out and setting: the figure for `COC(=O)CCCC(=O)Nc1cccc(CON=C(c2ccc(C)cc2)c2ncnn2C)n1` [Example 42] is 2.68^[b]; for `COC(=O)CCCC(=O)Nc1cccc(CON=C(c2ccccc2)c2ncnn2C)n1` [Example 43] it is 2.39^[b]; for `CCCCCOC(=O)Nc1cccc(CON=C(c2ccc(C)cc2)c2ncnn2C)n1` [Example 44] it is 4.31^[b]. Still for that read-out and setting: the figure for `CCCCCOC(=O)Nc1cccc(CON=C(c2ccccc2C)c2ncnn2C)n1` [Example 45] is 4.06^[b].

As to `Cn1ncnc1C(=NOCc1ncc(C(F)(F)F)cc1Cl)c1ccccc1` [Example 47], under setting [1], the log p is 3.44^[b]. In the case of `CCCCCC(=O)Nc1cccc(CON=C(c2cccc(C)c2)c2ncnn2C)n1` [Example 48], the log p under setting [1] is 3.55^[b]. Still for that read-out and setting: the figure for `Cn1ncnc1C(=NOCc1ccccn1)c1ccccc1` [Example 50] is 1.51^[b]; for `Cn1ncnc1C(=NOCc1ccc2ccccc2n1)c1ccccc1` [Example 51] it is 2.51^[b]; for `CCOC(=O)Nc1ccnc(CON=C(c2ccccc2)c2nccn2C)n1` [Example 52] it is 1.47^[b]. On the same count and under the same terms, the figure for `COCC(=O)Nc1ccnc(CON=C(c2ccccc2)c2nccn2C)n1` [Example 53] is 1.2^[b]; for `Cn1ccnc1C(=NOCc1nccc(NC(=O)COCc2ccccc2)n1)c1ccccc1` [Example 54] it is 2.04^[b]; for `CCCCCOC(=O)Nc1ccnc(CON=C(c2ccccc2)c2nccn2C)n1` [Example 55] it is 2.28^[b]. For `COCCOCC(=O)Nc1ccnc(CON=C(c2ccccc2)c2nccn2C)n1` [Example 56], the log p under setting [1] is 1.34^[b].

Turning to `C=CCOC(=O)Nc1ccnc(CON=C(c2ccccc2)c2nccn2C)n1` [Example 57], the log p under setting [1] is 1.62^[b]. On the same count and under the same terms, the figure for `CCCC(=O)Nc1ccnc(CON=C(c2ccccc2)c2nccn2C)n1` [Example 58] is 1.68^[b]; for `CCCCC(=O)Nc1ccnc(CON=C(c2ccccc2)c2nccn2C)n1` [Example 59] it is 1.95^[b]. Same read-out and setting: the figure for `Cn1nncc1C(=NOCc1cccc(N)n1)c1ccccc1` [Example 60] is 1.11^[b]; for `CC(=O)Nc1ccnc(CON=C(c2ccccc2)c2nccn2C)n1` [Example 62] it is 1.13^[b]; for `CCC(=O)Nc1ccnc(CON=C(c2ccccc2)c2nccn2C)n1` [Example 63] it is 1.38^[b]. The same measure, in the same setting: the figure for `Cn1ccnc1C(=NOCc1nccc(NC(=O)CCc2ccccc2)n1)c1ccccc1` [Example 64] is 2.21^[b]; for `CCCCCC(=O)Nc1cccc(CON=C(c2ccccc2)c2cnnn2C)n1` [Example 65] it is 3.52^[b]. On to `Cn1nncc1C(=NOCc1cccc(NC(=O)C(C)(C)C)n1)c1ccccc1` [Example 66], for which the log p under setting [1] was 3.11^[b]. The same measure, in the same setting: the figure for `Cn1nncc1C(=NOCc1cccc(NC(=O)C2CC2)n1)c1ccccc1` [Example 67] is 2.55^[b]; for `Cn1nncc1C(=NOCc1cccc(NC(=O)Cc2ccccc2)n1)c1ccccc1` [Example 68] it is 3.19^[b]; for `CCCCCOC(=O)Nc1cccc(CON=C(c2ccccc2)c2cnnn2C)n1` [Example 69] it is 2.46^[b].

In the case of `Cn1nncc1C(=NOCc1nccc(N)n1)c1ccccc1` [Example 70], the log p under setting [1] was 0.96^[b]. Regarding `CCCCCC(=O)Nc1ccnc(CON=C(c2ccccc2)c2cnnn2C)n1` [Example 71], the log p under setting [1] was 3.23^[b]. Still for that read-out and setting: the figure for `CCCCS(=O)(=O)Nc1cccc(CON=C(c2ccccc2)c2ncnn2C)n1` [Example 72] is 4.21^[b]; for `CCCCS(=O)(=O)N(c1cccc(CON=C(c2ccccc2)c2ncnn2C)n1)S(=O)(=O)CCCC` [Example 73] it is 2.73^[b]; for `CCCCS(=O)(=O)Nc1cccc(CON=C(c2ccc(C)cc2)c2ncnn2C)n1` [Example 74] it is 3.04^[b]. Take `CCCCS(=O)(=O)Nc1cccc(CON=C(c2cccc(C)c2)c2ncnn2C)n1` [Example 75]: the log p under setting [1] is 3.04^[b]. With `CCCCS(=O)(=O)Nc1cccc(CON=C(c2ccccc2)c2cnnn2C)n1` [Example 76], under setting [1], the log p is 2.86^[b]. Still for that read-out and setting: the figure for `Cn1nncc1C(=NOCc1nccc(NC(=O)C(C)(C)C)n1)c1ccccc1` [Example 77] is 2.77^[b].

As for `CCCCS(=O)(=O)N(c1cccc(CON=C(c2ccc(C)cc2)c2ncnn2C)n1)S(=O)(=O)CCCC` [Example 78], the log p under setting [1] was 4.51^[b]. For the compound `CCCCS(=O)(=O)N(c1cccc(CON=C(c2cccc(C)c2)c2ncnn2C)n1)S(=O)(=O)CCCC` [Example 79], the log p under setting [1] was 4.49^[b]. `CCCCS(=O)(=O)N(c1cccc(CON=C(c2ccccc2)c2cnnn2C)n1)S(=O)(=O)CCCC` [Example 80]: the log p under setting [1] is 4.26^[b]. Same read-out and setting: the figure for `Cn1nncc1C(=NOCc1nccc(NC(=O)Cc2ccccc2)n1)c1ccccc1` [Example 81] is 2.84^[b].
